Experimental data taken from US20260256772A1, “BENZOTHIAZOLE COMPOUND AND USE THEREOF” (NANJING REJU THERAPEUTICS, INC., priority 2022, published 2026).

What was measured:
senescent cells = experiment: Senescent cell killing, CellTiter-Glo cell viability; format: cell-based, human, mouse; settings: activity of killing senescent cells; cell type not specified
Text: In this test example, human non-small cell lung cancer cell line (A549 cells), human embryonic lung fibroblast cell line (IMR90 cells), human retinal pigment epithelial cells (RPE cells), mouse chondrocytes, and mouse skin fibroblasts were selected. The above cells were induced by etoposide ([…]) to obtain their senescent cells. The effect of the target compounds on the viability of normal and senescent cells above was examined, thus assessing the specific killing effect of the compounds on senescent cells above.
Briefly, senescent and normal cells above were selected and plated separately (96-well plates). […] 2A to 2E.

diabetic retinopathy = experiment: Mouse model of diabetic retinopathy (STZ), retinal Evans blue penetration assay; format: in vivo; settings: intravitreal (IVT), 1 μL of 200 μM at 8 and 9 weeks after STZ, FIG. 4
Procedure: The efficacy of the compounds of the present disclosure was studied in a mouse model of diabetic retinopathy by multiple administrations of streptozotocin (STZ). C57BL/6J mice at 6 to 7 weeks were weighed and their baseline blood glucose was measured (Sino). STZ (Sigma-Alderich) was injected intraperitoneally into the mice at 55 mg/Kg for five consecutive days. Age-matched controls were injected with buffer only. Blood glucose was measured again one week after the last STZ injection. 1 μL of the test compound (200 μM, a suspension formulated in 0.015% polysorbate 80, 0.2% sodium phosphate, 0.75% sodium chloride, pH 7.2) was injected intravitreally into the STZ-treated diabetic C57BL/6J mice at 8 and 9 weeks after STZ administration. 10 weeks after STZ treatment, the retinal Evans blue penetration assay was performed.

[1] = test system: wet-age-related macular degeneration; experiment: CNV animal model of wet-age-related macular degeneration; format: in vivo, mice; settings: intravitreal (IVT), FIG. 5
Procedure: In this test example, the efficacy of the compounds of the present disclosure was tested on wet-age-related macular degeneration in a CNV animal model.
Male mice were administered 0.5% probacaine hydrochloride (Alcon) for local anesthesia, and 1% tropicamide to dilate the pupils of the mice. Laser cauterization was performed using a laser photocoagulator (Novus Varia, LUMENIS) with a slit lamp delivery system. And artificially torn adherent glass coverslips were used as contact lenses. Bleeding spots caused by lasers were not included in the statistics. In each experimental group, six mice were analyzed with four impacts per eye to overcome inherent variability.

[2] = test system: idiopathic pulmonary fibrosis; experiment: Idiopathic pulmonary fibrosis animal model (bleomycin); format: in vivo, SD rats; settings: intraperitoneal (IP) 5 mg/kg, 3 consecutive weeks, FIG. 6; for pathology scores: H&E and Masson staining; for WBC: alveolar lavage fluid; for HYP: lung tissue
Procedure: In this test example, the efficacy of the compounds of the present disclosure was tested on idiopathic pulmonary fibrosis in an idiopathic pulmonary fibrosis animal model. Briefly, anesthetized 6-week-old SD rats were fixed on a foam board with medical tape. Firstly, the skin on the surface of the trachea was cut with surgical scissors to fully expose the trachea, and a 100-microlitre micro-syringe containing a certain volume of bleomycin (BLM 5 mg/kg) solution drawn based on the body weight of the rat was inserted into the trachea through the oral cavity to administer by slow bolus injection. After administration of the BLM solution, the foam plate was immediately rotated and shaken to distribute the BLM solution as evenly as possible in the lung tissue. Then the skin on the surface of the trachea was sutured with surgical sutures and about 0.5 to 1.0 mL of penicillin solution was dripped onto the epidermis to prevent infection of the surgical wound. After the 7th day of modelling, the compound solution of the present disclosure was administered via intraperitoneal (IP) injection (5 mg/kg) according to the weight of the rat for 3 consecutive weeks. Rats were euthanized by carbon dioxide on Day 28, the lung tissues were removed, the left alveolar lavage fluid was collected for white blood cell (WBC) counting, the right lung tissue portion was used for hydroxyproline (HYP) assay, and the remaining lung tissues were stained for pathology by H&E staining and Masson staining.

osteoarthritis = experiment: Osteoarthritis animal model; format: in vivo, mice; settings: intra-articular injection, FIG. 7
Procedure: In this test example, the efficacy of the compounds of the present disclosure was tested on osteoarthritis in an osteoarthritis animal model.
The osteoarthritis animal model was constructed by the following steps. The mice were anesthetized with isoflurane, and fixed. The hair on the right hind limb of the mice was shaved and the skin was disinfected with alcohol, and the skin of the joints was cut. Under an optical microscope, the inside of the right knee joint was incised longitudinally with a blade, without cutting the patellar ligament. The patellar ligament was pulled to one side with constant hemostasis by compression with sterile cotton swabs such that the joint cavity was fully exposed. Saline was added dropwise in time to avoid the drying up of the joint cavity. The excess muscle tissue was gently separated with a blunt forceps to expose the meniscus ligament. The anterior cruciate ligament was found in the depth of the joint cavity and cut with a micro scissor. Then the wound was disinfected with penicillin solution, the muscle was sutured with sterile needle and thread, and the skin tissue was finally sutured. The efficacy of the drug was determined by intra-articular injection administration. At the endpoint of the test, continued pain threshold of the plantar was detected, and the bone joints were stained with safranin fast green.

Alzheimer's disease = Alzheimer's disease APP×PS1 transgenic mouse model; format: in vivo; settings: intraperitoneal injection, 11 consecutive weeks, twice a week, FIG. 8
Procedure: In this test example, the efficacy of the compounds of the present disclosure was tested on Alzheimer's disease in an animal model of Alzheimer's disease. Briefly, a transgenic mouse model of APP×PS1 (purchased from Cyagen Biosciences) was selected, and the compound of the present disclosure was administered by intraperitoneal injection for 11 consecutive weeks, twice a week. Alterations in amyloid in the cerebral cortex of the mice were observed.

aging skin = experiment: Aging skin, naturally aging mouse model; format: in vivo, C57bl/6J mice; settings: skin application twice a week for 6 consecutive weeks, FIG. 10
Procedure: In this test example, aged female C57bl/6J mice (22 months old) were used. The drug was administered by skin application twice a week for 6 consecutive weeks.

platelets = experiment: Platelet toxicity test in mice (platelet count); format: in vivo
Procedure: In this test example, C57 mice were chosen to detect the effect of the target compounds on platelets.
7 to 8 weeks old […] mice were randomly divided into vehicle group and compound group. The test compound (0.5 mg/kg) or blank vehicle was administrated via single intraperitoneal injection. Blood was collected from the retroorbital venous plexus of the mice at 6 hours, and placed in a blood routine tube containing anticoagulant EDTA-K2. After shaking gently, the blood physiological indicators were measured using a hematology analyzer, with the platelet count as the target parameter for this platelet toxicity test.

Question: Cc1c(-c2ccc(N3CCc4cccc(C(=O)Nc5nc6ccccc6s5)c4C3)nc2C(=O)N2CCN(CCO)CC2)cnn1CC12CC3CC(CC(C3)C1)C2 [RX002] was tested. Which IC50 (senescent cells) did it give?
Answer: The IC50 was < 0.2 µM.

Question: What about the “vascular permeability, choroidal vascular leakage” value (diabetic retinopathy) of the same compound?
Answer: Its value is “improved”.

Question: What about the “vascular permeability, retinal vascular leakage” value (diabetic retinopathy) of the same compound?
Answer: Its value is “improved”.

Question: And the fluorescence intensity indicators [1]?
Answer: The fluorescence intensity indicators was “statistically significant improvements”.

Question: And the pathology scores [2]?
Answer: The pathology scores was “statistically significant improvements”.

Question: And the WBC [2]?
Answer: Its WBC is “statistically significant improvements”.

Question: What about the HYP [2] of the same compound?
Answer: Its HYP is “statistically significant improvements”.

Question: And the “pathology scores of safranin fast green staining” value (osteoarthritis)?
Answer: Its value is “statistically significant improvements”.

Question: What about the “plantar mechanical pain threshold” value (osteoarthritis) of the same compound?
Answer: Its value is “statistically significant improvements”.

Question: And the “Aβ42 pathogenic protein indicators” value (Alzheimer's disease)?
Answer: Its value is “statistically significant improvements”.

Question: What about the “epidermal thickness scores of the skins” value (aging skin) of the same compound?
Answer: The value was “statistically significant improvements”.

Question: Which results are given for Cc1c(-c2ccc(N3CCc4cccc(C(=O)Nc5nc6ccccc6s5)c4C3)nc2C(=O)NC2CCN(Cc3ccccc3)CC2)cnn1CC12CC3CC(CC(C3)C1)C2 [RX003]?
Answer: vascular permeability, choroidal vascular leakage (diabetic retinopathy): improved; vascular permeability, retinal vascular leakage (diabetic retinopathy): improved; fluorescence intensity indicators [1]: statistically significant improvements; pathology scores [2]: statistically significant improvements; WBC [2]: statistically significant improvements; HYP [2]: statistically significant improvements; pathology scores of safranin fast green staining (osteoarthritis): statistically significant improvements; plantar mechanical pain threshold (osteoarthritis): statistically significant improvements; Aβ42 pathogenic protein indicators (Alzheimer's disease): statistically significant improvements; epidermal thickness scores of the skins (aging skin): statistically significant improvements

Question: For Cc1c(-c2ccc(N3CCc4cccc(C(=O)Nc5nc6ccccc6s5)c4C3)nc2C(=O)N2CCNC(=O)C2)cnn1CC12CC3CC(CC(C3)C1)C2 [RX004], which IC50 (senescent cells) is on record?
Answer: Its IC50 is 0.2 to 1 µM.

Question: With Cc1c(-c2ccc(N3CCc4cccc(C(=O)Nc5nc6ccccc6s5)c4C3)nc2C(=O)NCc2ccco2)cnn1CC12CC3CC(CC(C3)C1)C2 [RX005] as the compound, how does the IC50 (senescent cells) read?
Answer: The IC50 was > 10 µM.

Question: For Cc1c(-c2ccc(N3CCc4cccc(C(=O)Nc5nc6ccccc6s5)c4C3)nc2C(=O)N2CCN(C)CC2)cnn1CC12CC3CC(CC(C3)C1)C2 [RX007], which IC50 (senescent cells) is on record?
Answer: Its IC50 is 0.2 to 1 µM.

Question: How did the IC50 (senescent cells) turn out when Cc1c(-c2ccc(N3CCc4cccc(C(=O)Nc5nc6ccccc6s5)c4C3)nc2C(=O)N2CCNCC2)cnn1CC12CC3CC(CC(C3)C1)C2 [RX008] was run?
Answer: Its IC50 is 0.2 to 1 µM.

Question: For Cc1c(-c2ccc(N3CCc4cccc(C(=O)Nc5nc6ccccc6s5)c4C3)nc2C(=O)N2CCOCC2)cnn1CC12CC3CC(CC(C3)C1)C2 [RX009], which IC50 (senescent cells) is on record?
Answer: Its IC50 is < 0.2 µM.

Question: How did the IC50 (senescent cells) turn out when Cc1c(-c2ccc(N3CCc4cccc(C(=O)Nc5nc6ccccc6s5)c4C3)nc2C(=O)NCC2CCOCC2)cnn1CC12CC3CC(CC(C3)C1)C2 [RX010] was run?
Answer: Its IC50 is 0.2 to 1 µM.

Question: Which results are given for Cc1c(-c2ccc(N3CCc4cccc(C(=O)Nc5nc6ccccc6s5)c4C3)nc2C(=O)N2CCC(CO)CC2)cnn1CC12CC3CC(CC(C3)C1)C2 [RX011]?
Answer: platelet toxicity (platelet count) (platelets; mouse, in vivo, ip, 0.5 mg/kg): significantly improved; IC50 (senescent cells): < 0.2 µM

Question: For Cc1c(-c2ccc(N3CCc4cccc(C(=O)Nc5nc6ccccc6s5)c4C3)nc2C(=O)NCCN2CCOCC2)cnn1CC12CC3CC(CC(C3)C1)C2 [RX012], which IC50 (senescent cells) is on record?
Answer: Its IC50 is 0.2 to 1 µM.

Question: For Cc1c(-c2ccc(N3CCc4cccc(C(=O)Nc5nc6ccccc6s5)c4C3)nc2C(=O)N2CCN(CCO)CC2)cnn1CC12CC3CC(CC(C3)C1)C2 [RX013], which “platelet toxicity (platelet count)” value (platelets; mouse, in vivo, ip, 0.5 mg/kg) is on record?
Answer: The value was “significantly improved”.

Question: And the IC50 (senescent cells)?
Answer: The IC50 was < 0.2 µM.

Question: How did the IC50 (senescent cells) turn out when Cc1c(-c2ccc(N3CCc4cccc(C(=O)Nc5nc6ccccc6s5)c4C3)nc2C(=O)NCCO)cnn1CC12CC3CC(CC(C3)C1)C2 [RX014] was run?
Answer: The IC50 was 1 to 10 µM.

Question: Cc1c(-c2ccc(N3CCc4cccc(C(=O)Nc5nc6ccccc6s5)c4C3)nc2C(=O)NCC(=O)O)cnn1CC12CC3CC(CC(C3)C1)C2 [RX015] was tested. Which IC50 (senescent cells) did it give?
Answer: Its IC50 is 1 to 10 µM.

Question: With Cc1c(-c2ccc(N3CCc4cccc(C(=O)Nc5nc6ccccc6s5)c4C3)nc2C(=O)N2CCN(CCN)CC2)cnn1CC12CC3CC(CC(C3)C1)C2 [RX016] as the compound, how does the “platelet toxicity (platelet count)” value (platelets; mouse, in vivo, ip, 0.5 mg/kg) read?
Answer: The value was “significantly improved”.

Question: And the IC50 (senescent cells)?
Answer: The IC50 was 0.2 to 1 µM.

Question: Which results are given for Cc1c(-c2ccc(N3CCc4cccc(C(=O)Nc5nc6ccccc6s5)c4C3)nc2C(=O)N2CCC(O)CC2)cnn1CC12CC3CC(CC(C3)C1)C2 [RX019]?
Answer: platelet toxicity (platelet count) (platelets; mouse, in vivo, ip, 0.5 mg/kg): significantly improved; IC50 (senescent cells): < 0.2 µM

Question: How did the IC50 (senescent cells) turn out when Cc1c(-c2ccc(N3CCc4cccc(C(=O)Nc5nc6ccccc6s5)c4C3)nc2C(=O)NCC(=O)OCc2ccccc2)cnn1CC12CC3CC(CC(C3)C1)C2 [RX020] was run?
Answer: Its IC50 is > 10 µM.

Question: How did the IC50 (senescent cells) turn out when CCOC(=O)C(C)NC(=O)c1nc(N2CCc3cccc(C(=O)Nc4nc5ccccc5s4)c3C2)ccc1-c1cnn(CC23CC4CC(CC(C4)C2)C3)c1C (centres unmarked) [RX021] was run?
Answer: The IC50 was 1 to 10 µM.

Question: With CCOC(=O)CCC(NC(=O)c1nc(N2CCc3cccc(C(=O)Nc4nc5ccccc5s4)c3C2)ccc1-c1cnn(CC23CC4CC(CC(C4)C2)C3)c1C)C(=O)OCC (centres unmarked) [RX022] as the compound, how does the IC50 (senescent cells) read?
Answer: The IC50 was > 10 µM.

Question: Which IC50 (senescent cells) does the source give for Cc1c(-c2ccc(N3CCc4cccc(C(=O)Nc5nc6ccccc6s5)c4C3)nc2C(=O)N2CCC(OP(=O)(O)O)CC2)cnn1CC12CC3CC(CC(C3)C1)C2 [RX302] here?
Answer: The IC50 was < 0.2 µM.

Question: Which results are given for Cc1c(-c2ccc(N3CCc4cccc(C(=O)Nc5nc6ccccc6s5)c4C3)nc2C(=O)N2CCN(CCOP(=O)(O)O)CC2)cnn1CC12CC3CC(CC(C3)C1)C2 [RX304]?
Answer: platelet toxicity (platelet count) (platelets; mice, 0.5 mg/kg single intraperitoneal injection, blood at 6 hours, FIG. 1): significantly improved; IC50 (senescent cells): < 0.2 µM
